Literature values, collected in patent US10301318B2, “Neuroactive compounds and methods of using the same” (THE GENERAL HOSPITAL CORPORATION, priority 2014, dated 2019).

Tested on: mice
Conditions: literature

SMILES: O=C(CCCN1CCC(O)(c2ccc(Cl)cc2)CC1)c1ccc(F)cc1 [haloperidol]
- reversal of PCP-induced hyperlocomotion: can be reversed
